Paper PMC6981454, “Promising 2,6,9-Trisubstituted Purine Derivatives for Anticancer Compounds: Synthesis, 3D-QSAR, and Preliminary Biological Assays” (International Journal of Molecular Sciences, 2019)
Read-outs that look alike come from different tables or passages of the source.

How the values were obtained:
Type in all cases: cell-based, human
CFPAC-1 = assay: MTT cytotoxicity assay, 72 h; settings: Homo sapiens, CFPAC-1, IC50 ± SD
Procedure, shortened: (§1)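 MTT reduction assay following a 72 h incubation at 37 °C with compounds (0.1–100 µM; vehicle 1% DMSO), cells at 1 × 10^4 per well. Formazan, solubilised with SDS/HCl, quantified at 570 nm.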

K562 = assay: MTT cytotoxicity assay, 72 h
Procedure, shortened: as §1

NCI-H460 = assay: MTT cytotoxicity assay, 72 h
Procedure, shortened: as §1

MCF-7 = assay: MTT cytotoxicity assay, 72 h
Procedure, shortened: as §1

HCT-116 = assay: MTT cytotoxicity assay, 72 h; settings: Homo sapiens, HCT-116, IC50 ± SD
Procedure, shortened: as §1

HL-60 = assay: MTT cytotoxicity assay, 72 h; settings: for IC50: Homo sapiens
Procedure, shortened: as §1

HL-60 cells [1] = assay: Cell viability by propidium iodide flow cytometry; settings: HL-60, 50 μM, 24 h, PI staining
HL-60 cells [2] = assay: Cell cycle analysis, PI flow cytometry; settings: HL-60, 25 µM, 48 h
Procedure: Considering that apoptotic mechanisms are associated with the G1/S boundary cell cycle arrest and the inhibition of cell cycle progression is an important factor to control cancer cell growth, we were interested in investigating whether 7h affects the cell cycle of HL-60 cells. We analyzed the cell cycle distribution of the cells stained with PI using flow cytometry. […] This effect is in agreement with apoptotic mechanisms.
HL60 cells were plated in 6-well plates at a density of 2.0 × 10^5 cells/1.5 mL/well, and grown overnight at 37 °C in a 5% CO2 humidified atmosphere. Cells were treated with compounds 7h at 25 µM concentration or 1% DMSO (controls) for 48 h. Aliquots of cells were collected, pelleted, washed, and fixed with ethanol (70% v/v) for at least 30 min at 4 °C. Cells were twice resuspended in PBS, and after centrifugation and elimination of the supernatant, resuspended in a solution containing PBS, PI ([…], Invitrogen), RNase A (20 mg/mL, Invitrogen). After a final incubation for 1 h in the dark at 37 °C; PI signal was measured using a FACS canto II flowcytometer (BD; Mountain View, CA) with a 488 nm excitation laser, captured, and FACS Diva was used as the acquisition software. The percentage of cells in each phase was analyzed using the FCS Express v6 software. Three independent biological replicates were performed.

O=[N+]([O-])c1ccc(N2CCN(c3nc(Cl)nc4c3ncn4C3CCCC3)CC2)cc1 [7h, 2-Chloro-9-cyclopentyl-6-(4-(4-nitrophenyl)piperazin-1-yl)-9H-purine]
IC50 (CFPAC-1): > 100 µM
IC50 (K562; Homo sapiens, K562, 72 h, MTT, 72 h, IC50 ± SD): 1.02 ± 0.04 µM
Selectivity Index (SI) MRC-5/K562 (K562; IC50 in MRC-5 / IC50 in K562): > 98
IC50 (NCI-H460; Homo sapiens, NCI-H460, 72 h, MTT, 72 h, IC50 ± SD, read-out: IC50 NCI-H460): 1.3 µM
IC50 (NCI-H460; Homo sapiens, NCI-H460, -logIC50 in molar concentration, Table S2, read-out: Experimental pIC50 (NCI-H460) (converted)): 1.31 µM
Selectivity Index (SI) MRC-5/NCI-H460 (NCI-H460; IC50 in MRC-5 / IC50 in NCI-H460): > 76.3
IC50 (NCI-H460; MTT, 72 h, IC50 ± SD, read-out: IC50 NCI-H460): 1.31 ± 0.07 µM
Selectivity Index (SI) MRC-5/MCF-7 (MCF-7; IC50 in MRC-5 / IC50 in MCF-7): > 64.5
IC50 (MCF-7; MTT, 72 h, IC50 ± SD): 1.55 ± 0.34 µM
IC50 (HCT-116): 30 ± 7.1 µM
IC50 (HL-60; HL-60, 72 h, MTT, 72 h, IC50 ± SD, read-out: IC50 HL-60): 0.4 ± 0.01 µM
IC50 (HL-60; HL-60, -logIC50 in molar concentration, Table S1, read-out: Experimental pIC50 (HL-60) (converted)): 0.4 µM
Selectivity Index (SI) MRC-5/HL-60 (HL-60; IC50 in MRC-5 / IC50 in HL-60): > 250
apoptotic cells (HL-60 cells [1]): ~30%
effect on cell cycle distribution (HL-60 cells [2]): accumulation of cells in S cell cycle phase
